What is called IC50 is the point on the concentration scale where inhibition reaches its midpoint.

This experiment deals with T1, cMET receptor tyrosine kinase (GST-cMET (969-1390)) (Homo sapiens, UniProt P08581).
T1 construct: made in house
T1 sequence (P08581 969-1390): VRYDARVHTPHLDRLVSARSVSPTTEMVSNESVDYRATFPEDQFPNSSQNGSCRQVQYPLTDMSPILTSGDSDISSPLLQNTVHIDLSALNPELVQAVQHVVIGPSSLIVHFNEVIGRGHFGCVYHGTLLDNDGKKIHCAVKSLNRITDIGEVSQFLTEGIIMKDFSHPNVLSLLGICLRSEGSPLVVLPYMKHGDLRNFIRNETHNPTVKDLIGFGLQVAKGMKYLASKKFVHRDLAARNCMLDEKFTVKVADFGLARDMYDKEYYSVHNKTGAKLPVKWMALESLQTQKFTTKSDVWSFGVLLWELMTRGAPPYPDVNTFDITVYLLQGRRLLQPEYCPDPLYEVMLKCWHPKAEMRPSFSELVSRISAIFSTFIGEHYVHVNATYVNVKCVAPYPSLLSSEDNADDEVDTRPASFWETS
The experiment can be described thus: EPK cMET profiling assay (LanthaScreen TR-FRET antibody based kinase phosphorylation assay). The experiment is classed as biochemical. The note with it: purified recombinant GST-cMET (969-1390), 2 μM ATP, 50 nM Fluorescein-PolyEAY, 60 minutes at room temperature; read-out: c-Met IC50. Summed up: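 Compounds tested at eight final concentrations from 10 down to 0.003 µM against affinity-purified GST-cMET (969-1390, 0.3 nM) with 2 µM ATP and 50 nM fluorescein-PolyEAY in Tris buffer with MgCl2 and MnCl2, 1 h at room temperature. After EDTA stop, phosphoproduct detected by LanthaScreen TR-FRET with Tb-PY20 antibody, end-point measurement.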
In general terms: TR-FRET usually uses a lanthanide donor and a delayed reading to cut background.
Turning to `COc1ccc(-c2ccc3ncc(Cc4ccc5ncccc5c4)n3n2)cc1` [Example 35, 6-[6-(4-Methoxy-phenyl)-imidazo[1,2-b]pyridazin-3-ylmethyl]-quinoline], the IC50 was 79 nM.

As for `CN(C)c1cccc(-c2ccc3ncc(Cc4ccc5ncccc5c4)n3n2)c1` [Example 36, Dimethyl-[3-(3-quinolin-6-ylmethyl-imidazo[1,2-b]pyridazin-6-yl)-phenyl]-amine], the IC50 worked out at 65 nM.

With `Cn1ccc2cc(-c3ccc4ncc(Cc5ccc6ncccc6c5)n4n3)ccc21` [Example 37, 6-[6-(1-Methyl-1H-indol-5-yl)-imidazo[1,2-b]pyridazin-3-ylmethyl]-quinoline], the IC50 stood at 30 nM.

With `c1cnc2ccc(Cc3cnc4ccc(-c5cc6ccccc6s5)nn34)cc2c1` [Example 38, 6-(6-Benzo[b]thiophen-2-yl-imidazo[1,2-b]pyridazin-3-ylmethyl)-quinoline], the IC50 was determined as 39 nM.

Take `c1cnc2ccc(Cc3cnc4ccc(-c5cnc6ccccc6c5)nn34)cc2c1` [Example 39, 6-(6-Quinolin-3-yl-imidazo[1,2-b]pyridazin-3-ylmethyl)-quinoline]: the IC50 came to 72 nM.

For `COc1ccc2cc(-c3ccc4ncc(Cc5ccc6ncccc6c5)n4n3)ccc2c1` [Example 40, 6-[6-(6-Methoxy-naphthalen-2-yl)-imidazo[1,2-b]pyridazin-3-ylmethyl]-quinoline], the IC50 was 130 nM.

For `Clc1ccc(-c2ccc3ncc(Cc4ccc5ncccc5c4)n3n2)s1` [Example 41, 6-[6-(5-Chloro-thiophen-2-yl)-imidazo[1,2-b]pyridazin-3-ylmethyl]-quinoline], the half-inhibitory concentration (IC50) was found to be 56 nM.

In the case of `c1cnc2ccc(Cc3cnc4ccc(-c5cncc6ccccc56)nn34)cc2c1` [Example 42, 6-(6-Isoquinolin-4-yl-imidazo[1,2-b]pyridazin-3-ylmethyl)-quinoline], the IC50 was determined as 450 nM.

In the case of `FC(F)(F)Oc1ccc(-c2ccc3ncc(Cc4ccc5ncccc5c4)n3n2)cc1` [Example 43, 6-[6-(4-Trifluoromethoxy-phenyl)-imidazo[1,2-b]pyridazin-3-ylmethyl]-quinoline], the IC50 worked out at 350 nM.

As for `c1cnc2ccc(Cc3cnc4ccc(-c5ccc6[nH]ccc6c5)nn34)cc2c1` [Example 45, 6-[6-(1H-Indol-5-yl)-imidazo[1,2-b]pyridazin-3-ylmethyl]-quinoline], the IC50 was determined as 100 nM.

In the case of `CCCn1cc(-c2ccc3ncc(Cc4ccc5ncccc5c4)n3n2)cn1` [Example 46, 6-[6-(1-Propyl-1H-pyrazol-4-yl)-imidazo[1,2-b]pyridazin-3-ylmethyl]-quinoline], the IC50 worked out at 57 nM.

As for `Clc1ccc(-c2ccc3ncc(Cc4ccc5ncccc5c4)n3n2)cn1` [Example 47, 6-[6-(6-Chloro-pyridin-3-yl)-imidazo[1,2-b]pyridazin-3-ylmethyl]-quinoline], the IC50 turned out to be 100 nM.

For the compound `Clc1ccc(-c2ccc(-c3ccc4ncc(Cc5ccc6ncccc6c5)n4n3)cn2)cn1` [Example 48, 6′-Chloro-5-(3-quinolin-6-ylmethyl-imidazo[1,2-b]pyridazin-6-yl)-[2,3′]bipyridinyl], the IC50 is 190 nM.

Consider `Clc1cc(-c2ccc3ncc(Cc4ccc5ncccc5c4)n3n2)ccn1` [Example 49, 6-[6-(2-Chloro-pyridin-4-yl)-imidazo[1,2-b]pyridazin-3-ylmethyl]-quinoline], for which the IC50 was 23 nM.

For the compound `Clc1cc(-c2cc(-c3ccc4ncc(Cc5ccc6ncccc6c5)n4n3)ccn2)ccn1` [Example 50, 2′-Chloro-4-(3-quinolin-6-ylmethyl-imidazo[1,2-b]pyridazin-6-yl)-[2,4′]bipyridinyl], the IC50 was 950 nM.

As for `c1cnc2ccc(Cc3cnc4ccc(-c5ccc6c(c5)OCO6)nn34)cc2c1` [Example 51, 6-(6-Benzo[1,3]dioxol-5-yl-imidazo[1,2-b]pyridazin-3-ylmethyl)-quinoline], the IC50 turned out to be 95 nM.

With `c1cnc2ccc(Cc3cnc4ccc(-c5ccc6nonc6c5)nn34)cc2c1` [Example 52, 6-(6-Benzo[1,2,5]oxadiazol-5-yl-imidazo[1,2-b]pyridazin-3-ylmethyl)-quinoline], the IC50 amounted to 240 nM.

For the origin of these results see patent US8822468B2 (Novartis AG, priority 2008, dated 2014).
